The test system of assay [1] is LX-2 (human hepatic stellate cells). Briefly: ROS production induced by PMA in LX-2 cells. The format is cell-based. Particulars: FIG. 1. From the text: (§1) In order to confirm the effect of the compounds of Synthetic examples on ROS production from fibroblasts and specific substrate cells, ROS production was induced by stimulation of PMA (phorbol 12-myristate 13-acetate), TGF-β1, palmitate or high concentration-glucose, or the like, in HL-60 cells differentiated into neutrophil cells by DMSO treatment, NHLF (normal human lung fibroblast, Lonza), LX-2 (human hepatic stellate cells, Sigma), ARPE19 (human retinal pigment epithelial cell, ATCC), and KEL-FIB (Keloid fibroblast, ATCC) cells, and under this condition, the inhibitory effect of ROS production of the compounds of Synthetic examples was observed.
(§2) The NHLF (normal human lung fibroblast, Lonza), LX-2 (human hepatic stellate cells, Sigma), ARPE19 (human retinal pigment epithelial cell, ATCC), KEL-FIB (keloid fibroblast, ATCC) cells were suspended in a culture medium containing 10% FBS and aliquoted on a 96 well plate and then cultured under the condition of 5% CO2, 37°C for 24 hours. After pre-treating the compounds of Synthetic examples at a concentration of 10, 20, 30, 40, 60 and 80 µM for 30 minutes to 1 hour, the ROS stimulus was treated to each well containing the cells and drug. After additional culturing for 48 hours, the ROS production level was confirmed using L-012 or DCF-DA.

The subject of assay [2] is NHLF (normal human lung fibroblast). Briefly: ROS production induced by PMA in NHLF cells. The format is cell-based. The note with it: FIG. 1.
Text: as §1, §2

The test system of assay [3] is αSMA. Briefly: Expression of αSMA induced by TGF-β1 (immunocytochemistry). It is filed as cell-based, human. The note with it: TGF-β1 (10 ng/ml), 10 µM, FIG. 4. The text has this: In order to confirm whether the compounds of Synthetic examples of the present invention affect differentiation of fibroblasts into myofibroblasts, the inhibitory effect of the compounds of Synthetic examples on increase in expression of αSMA (biomarker for confirming differentiation into myofibroblasts) induced by TGF-β1 on HFF-1 (human foreskin fibroblast, ATCC), NHLF (normal human lung fibroblast, Lonza), LX-2 (human hepatic stellate cells, Sigma), ARPE19 (human retinal pigment epithelial cell, ATCC), and KEL-FIB (Keloid fibroblast, ATCC) cells was to be observed.
Each cell was suspended in a DMEM medium containing 10% FBS and aliquoted at a concentration of 1×10^4 to 1.5 × 10 ^5 cells/well in a 4-well chamber slide (Nunc) and the compounds of Synthetic examples and TGF-β1 (both TGF β1 and TGF-β have the same meaning) were treated to prepare cells to be used for confirming αSMA expression. The confirmation of αSMA expression in the prepared cells was performed by immunocytochemistry as follows. For the cells, fixation with 4% paraformaldehyde for 10 minutes and permeabilization using 0.1% Triton x-100 were performed, and then processes of treating the primary antibody (anti-αSMA Ab, 1:200, at 4°C for 16 hours) and secondary antibody (Alexa-594 conjugated Ab, 1:800, at a room temperature for 1 hour) against αSMA were progressed in order, and then the expression level of αSMA was observed using a fluorescence microscope.
FIG. 3 observes the effect of treating various compounds of Synthetic examples by 10, 20 and 40 µM, after inducing αSMA expression by treatment of TGF-β1(10 ng/ml) into HFF cells.

In assay [4] the test system is human foreskin fibroblasts (HFF-1, ATCC). Briefly: Collagen gel contraction induced by TGF-β1. It is filed as cell-based. The note with it: HFF-1 cells and bovine type I collagen; TGF-β1 (10 ng/ml); 72 hours; FIG. 7. The text has this:
In order to confirm the effect of the compounds of Synthetic examples on differentiation of fibroblasts into myofibroblasts, the inhibitory effect of the compounds of Synthetic examples on the phenomenon of contraction of gel induced by interaction of human foreskin fibroblasts (HFF-1, ATCC) and collagen was observed.
The mixed solution of the HFF-1 cells and collagen (bovine type I collagen) prepared at a concentration of 3×10^6 cells/ml was aliquoted in a 24 well plate, respectively, and then cultured under the condition of 5% CO2, 37 °C for 1 hour to induce gel polymerization. Then, after suspending the gel attached on the plate from the plate using a spoon, a medium comprising TGF-β1 and Synthetic example compounds was added to each well. After culturing for 72 hours, the Synthetic example compounds were treated by 10, 20, 30, 40, 60 and 80 µM to measure the size of the gel, and thereby, the degree of contraction of the gel by drug treatment was confirmed.

Assay [5] deals with IL-1β. Briefly: Expression of IL-1β induced by LPS in human-derived fibroblasts (RT-PCR). It is filed as cell-based. Particulars: LPS (1 µg/ml) 6 hours; 10 µM; FIG. 8 (LX2, NHLF, ARPE19 and KEL-Fib cells). As to the method: After inoculating 2×10^5 cells in a 6 well plate and then culturing for 24 hours, they were further cultured in a serum-free culture solution for 16 hours and then the Synthetic example 1 Compound was pre-treated for 20 minutes according to each condition and inflammation reaction was induced with LPS (1 µg/ml) for 6 hours. The expression of IL-1β was confirmed using RT-PCR. Total RNA was separated from the cells using RNeasy mini kit (Qiagen), and for the separated RNA 2ug, cDNA was synthesized using PrimeScript™ II 1st strand cDNA synthesis kit (TaKaRa) and then PCR was performed with AccuPower® PCR PreMix (Bioneer) to amplify genes. The nucleotide sequences for target primers are as follows. IL-1β (forward: 5'-[…]-3'(SEQ ID NO: 1), reverse: 5'-[…]-3'(SEQ ID NO: 2)); GAPDH (forward: 5'-[…]-3'(SEQ ID NO: 3), reverse: 5'-[…]-3'(SEQ ID NO: 4)); β-actin (forward: 5'-[…]-3'(SEQ ID NO: 5), reverse: 5'-[…]-3'(SEQ ID NO: 6)). The PCR product was confirmed by electrophoresis in 1.5% agarose gel.

Assay [6] deals with IL-6. Briefly: Expression of IL-6 in pancreatic cancer associated fibroblasts (ELISA). The format is cell-based, human. Particulars: P.CAF cells; compounds 10, 20, 30, 40, 60 and 80 µM for 48 hours; FIG. 5. The procedure:
(§3) In order to confirm the effect of the compounds of Synthetic examples of the present invention on inflammation reaction in cancer associated fibroblasts, whether the expression of IL6 and IL8 was inhibited by the compounds of Synthetic examples in pancreatic cancer associated fibroblasts (PCAF) was observed.
(§4) After inoculating 1.5×10^5 cells in a 6 well plate and then culturing in P.CAF complete media for 48 hours, the compounds of Synthetic examples were treated by 10, 20, 30, 40, 60 and 80 µM for 48 hours according to each condition, and then the expression of IL-6 and IL-8 was confirmed by performing ELISA with Quantkine ELISA kit (R&D systems) as follows.
(§5) 100 µl of the culture solution in which the compounds of Synthetic examples were treated for 48 hours was added to the microplate strip for analysis including a 100 µl assay diluent and left at a room temperature for 2 hours and then the contents were removed, and then it was washed with 400 µl wash buffer 4 times. 200 µl of a human IL-6 or IL-8 conjugate was added and left at a room temperature for 2 hours and then the contents were removed, and then it was washed with 400 µl wash buffer 4 times. 200 µl of substrate solution was added and left at a room temperature for 20 minutes and then 50 µl of stop solution was added, and the absorbance at a wavelength of 450nm was measured within 30 minutes to confirm the expression level of IL-6 and IL-8.

Assay [7] has as its system IL-8. Briefly: Expression of IL-8 in pancreatic cancer associated fibroblasts (ELISA). It is filed as cell-based, human. The note with it: P.CAF cells; compounds 10, 20, 30, 40, 60 and 80 µM for 48 hours; FIG. 6. The procedure:
as §3, §4, §5

In the case of `CN(Cc1ccccc1)C1CCc2nn(-c3ccccn3)c(O)c2C1` (stereo not shown) [Compound 1, 5-(Benzylmethylamino)-2-(pyridin-2-yl)-4,5,6,7-tetrahydro-2H-indazol-3-ol], the “ROS production induced by PMA” value in assay [1] and in assay [2] was “inhibited” throughout. Moreover, the “increase in expression of αSMA induced by TGF-β1” value in assay [3] (ARPE19 cells), in assay [3] (KEL-FIB cells), in assay [3] (LX-2 cells) and in assay [3] (NHLF cells) was “significantly inhibited” each time. In assay [4], the “contraction of the gel induced by TGF-β1” value is recorded as “effectively inhibited”. For the same compound, the “IL-1β induced by LPS” value in assay [5] is on record as “effectively inhibited in a concentration-dependent manner”. Besides, the “IL-6 expressed in P.CAF” value in assay [6] is “effectively inhibited”. In addition, the “IL-8 expressed in P.CAF” value in assay [7] is “effectively inhibited”.
